Assay results taken from patent US20240285631A1, “METHODS OF TREATING VASCULAR MALFORMATIONS” (priority 2023, published 2024).

Test system: human umbilical vein endothelial cells
Experiment: Proliferation of human umbilical vein endothelial cells assessed by EdU uptake
Type: cell-based
Conditions: in vitro, dose response
Excerpt: FIG. 16 illustrates palbociclib, CVT-313 and ribociclib dose response effects on proliferation of human umbilical vein endothelial cells assessed by EdU uptake.
This example discusses that endothelial cell cycle dysregulation is a mechanism involved in the development of arterio-venous malformations in HHT, as well as other types of vascular malformations named above. Palbociclib, a FDA-approved cell cycle inhibitor, could be used to prevent arterio-venous and other malformations, including venous, capillary, lymphatic and cerebral cavernous malformations.

| SMILES | EC proliferation assessed by EdU uptake |
| --- | --- |
| COc1ccc(CNc2nc(N(CCO)CCO)nc3c2ncn3C(C)C)cc1 [CVT-313, 2-[2-hydroxyethyl-[6-[(4-methoxyphenyl)methylamino]-9-propan-2-ylpurin-2-yl]amino]ethanol] | inhibit EC proliferation |
| CN(C)C(=O)c1cc2cnc(Nc3ccc(N4CCNCC4)cn3)nc2n1C1CCCC1 [Ribociclib, 7-cyclopentyl-N,N-dimethyl-2-[(5-piperazin-1-ylpyridin-2-yl)amino]pyrrolo[2,3-d]pyrimidine-6-carboxamide] | inhibit EC proliferation |
